Source: publication PMC6773864, “The functional ClpXP protease of Chlamydia trachomatis requires distinct clpP genes from separate genetic loci” (Scientific Reports, 2019)
*1 amine or outer side, *2 acyl side, *3 side chain or, on linkers, in order; H or OH if unused. Where a SMILES comes first, the peptide text is derived from it. The star is where a group is joined. AMC = Cc1cc(=O)oc2cc(N*)ccc12; Suc = O=C(CCC(=O)[*:2])[*:1]

Key:
ctClpP1P2 [1] = biological target: T1, ctClpP1P2 (Chlamydia trachomatis, UniProt O84712+P38002); experiment: peptidase assay, fluorescence (AMC release); type: biochemical; conditions: 100 µM substrate, 3 µM ClpP, no ADEP1, pH 7.6, 32 °C
T1 construct: gene clpP1; full-length, C-terminal Strep-tag on both (kept), expressed in E. coli dAPX-1 (clpP/clpX/clpA deleted), mixed 1:1; hetero-tetradecamer
T1 sequence (P38002 2-192): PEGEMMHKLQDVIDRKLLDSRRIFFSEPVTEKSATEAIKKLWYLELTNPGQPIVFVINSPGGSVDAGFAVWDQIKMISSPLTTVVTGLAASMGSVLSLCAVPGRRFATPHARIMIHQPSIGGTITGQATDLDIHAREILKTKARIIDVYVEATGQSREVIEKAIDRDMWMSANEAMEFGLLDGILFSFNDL
T1 sequence (O84712 whole entry): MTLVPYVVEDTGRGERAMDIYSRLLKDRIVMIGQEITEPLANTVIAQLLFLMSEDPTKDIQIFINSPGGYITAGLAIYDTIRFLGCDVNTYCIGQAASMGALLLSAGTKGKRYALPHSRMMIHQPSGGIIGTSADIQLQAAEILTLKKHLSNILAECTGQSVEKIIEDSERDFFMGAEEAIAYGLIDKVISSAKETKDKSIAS

ctClpP1P2 [2] = biological target: T1, ctClpP1P2; experiment: Suc-LY-AMC peptidase assay, fluorescence (AMC release); type: biochemical; conditions: activator; 15 µM ADEP1, 3 µM ClpP, 100 µM Suc-LY-AMC, no ClpX, pH 7.6, 32 °C; binds preferably via ClpP2 hydrophobic pocket

Row | Compound | peptidase assay, fluorescence (AMC release) (ctClpP1P2 [1]) | fold increase in peptidase activity at 15 μM (ctClpP1P2 [2]) [fold]
1 | Cc1cc(=O)oc2cc(NC(=O)[C@H](Cc3ccc(O)cc3)NC(=O)[C@H](CC(C)C)NC(=O)CCC(=O)O)ccc12 [Suc-LY-AMC] (Suc-Leu-Tyr-{AMC}) | when combined, ctClpP1P2 steadily hydrolysed Suc-LY-AMC | 
2 | ADEP1 |  | > 2.5
